According to a compilation of properties of binary mixtures (doi:10.1016/j.molliq.2014.08.031):

Assay: xn = mol fraction of the nth substance listed
Conditions: 101 kPa

CCCC[n+]1ccn(C)c1.CS(=O)(=O)[O-] + O
Conditions | electrical conductivity [S/m] | viscosity [mPa·s]
343.15 K, x2 = 0.7015 | – | 6.27
343.15 K, x2 = 0.704 | 2.68 | –
343.15 K, x2 = 0.7495 | – | 4.95
343.15 K, x2 = 0.785 | 4.03 | –
343.15 K, x2 = 0.796 | 4.19 | –
343.15 K, x2 = 0.8016 | – | 3.73
343.15 K, x2 = 0.861 | 7.01 | –
343.15 K, x2 = 0.9004 | – | 1.902
343.15 K, x2 = 0.9254 | – | 1.45
343.15 K, x2 = 0.929 | 9.33 | –
343.15 K, x2 = 0.9503 | – | 1.05
343.15 K, x2 = 0.951 | 9.42 | –
343.15 K, x2 = 0.968 | 8.73 | –
343.15 K, x2 = 0.975 | – | 0.672
344.15 K, x1 = 0.004 | 2.52 | –
344.15 K, x1 = 0.008 | 4.46 | –
344.15 K, x1 = 0.019 | 7.24 | –
344.15 K, x2 = 0.785 | 4.1 | –
344.15 K, x2 = 0.796 | 4.32 | –
344.15 K, x2 = 0.861 | 7.13 | –
344.15 K, x2 = 0.892 | 8.05 | –
344.15 K, x2 = 0.951 | 9.81 | –
345.15 K, x1 = 0.008 | 4.43 | –
345.15 K, x1 = 0.019 | 7.32 | –
345.15 K, x2 = 0.704 | 2.81 | –
345.15 K, x2 = 0.861 | 7.27 | –
345.15 K, x2 = 0.892 | 8.29 | –
345.15 K, x2 = 0.929 | 9.54 | –
346.15 K, x1 = 0.004 | 2.55 | –
346.15 K, x1 = 0.019 | 7.4 | –
346.15 K, x2 = 0.785 | 4.26 | –
346.15 K, x2 = 0.861 | 7.5 | –
346.15 K, x2 = 0.892 | 8.44 | –
346.15 K, x2 = 0.929 | 9.69 | –
346.15 K, x2 = 0.968 | 9.3 | –
347.15 K, x1 = 0.004 | 2.58 | –
347.15 K, x1 = 0.008 | 4.7 | –
347.15 K, x1 = 0.019 | 7.35 | –
347.15 K, x2 = 0.704 | 2.95 | –
347.15 K, x2 = 0.785 | 4.32 | –
347.15 K, x2 = 0.929 | 9.84 | –
347.15 K, x2 = 0.951 | 10.2 | –
347.15 K, x2 = 0.968 | 9.4 | –
348.15 K, x1 = 0.008 | 4.66 | –
348.15 K, x1 = 0.019 | 7.57 | –
348.15 K, x2 = 0.704 | 3.03 | –
348.15 K, x2 = 0.785 | 4.41 | –
348.15 K, x2 = 0.796 | 4.64 | –
348.15 K, x2 = 0.861 | 7.68 | –
348.15 K, x2 = 0.929 | 9.94 | –
348.15 K, x2 = 0.951 | 10.4 | –
348.15 K, x2 = 0.968 | 9.35 | –
349.15 K, x1 = 0.004 | 2.62 | –
349.15 K, x1 = 0.008 | 4.72 | –
349.15 K, x1 = 0.019 | 7.54 | –
349.15 K, x2 = 0.704 | 3.08 | –
349.15 K, x2 = 0.785 | 4.52 | –
349.15 K, x2 = 0.892 | 8.91 | –
349.15 K, x2 = 0.929 | 10.1 | –
349.15 K, x2 = 0.968 | 9.59 | –
350.15 K, x1 = 0.004 | 2.67 | –
350.15 K, x1 = 0.008 | 4.85 | –
350.15 K, x2 = 0.704 | 3.16 | –
350.15 K, x2 = 0.785 | 4.57 | –
350.15 K, x2 = 0.796 | 4.8 | –
350.15 K, x2 = 0.861 | 7.93 | –
350.15 K, x2 = 0.892 | 9.06 | –
350.15 K, x2 = 0.929 | 10.3 | –
350.15 K, x2 = 0.951 | 10.7 | –
350.15 K, x2 = 0.968 | 9.73 | –
351.15 K, x1 = 0.004 | 2.68 | –
351.15 K, x1 = 0.008 | 4.84 | –
351.15 K, x1 = 0.019 | 7.88 | –
351.15 K, x2 = 0.704 | 3.27 | –
351.15 K, x2 = 0.785 | 4.68 | –
351.15 K, x2 = 0.796 | 4.91 | –
351.15 K, x2 = 0.861 | 8.29 | –
351.15 K, x2 = 0.892 | 9.2 | –
351.15 K, x2 = 0.929 | 10.5 | –
351.15 K, x2 = 0.951 | 10.8 | –
351.15 K, x2 = 0.968 | 9.91 | –
352.15 K, x1 = 0.004 | 2.71 | –
352.15 K, x1 = 0.008 | 4.89 | –
352.15 K, x2 = 0.704 | 3.37 | –
352.15 K, x2 = 0.785 | 4.8 | –
352.15 K, x2 = 0.796 | 4.99 | –
352.15 K, x2 = 0.861 | 8.21 | –
352.15 K, x2 = 0.892 | 9.33 | –
352.15 K, x2 = 0.929 | 10.6 | –
352.15 K, x2 = 0.968 | 9.86 | –
353.15 K, x1 = 0.008 | 4.92 | –
353.15 K, x1 = 0.019 | 8.06 | –
353.15 K, x2 = 0.892 | 9.44 | –
353.15 K, x2 = 0.929 | 10.7 | –
353.15 K, x2 = 0.968 | 10.1 | –
354.15 K, x1 = 0.004 | 2.79 | –
354.15 K, x1 = 0.008 | 4.98 | –
354.15 K, x1 = 0.019 | 8.03 | –
354.15 K, x2 = 0.704 | 3.55 | –
354.15 K, x2 = 0.785 | 4.98 | –
354.15 K, x2 = 0.796 | 5.01 | –
354.15 K, x2 = 0.892 | 9.6 | –
354.15 K, x2 = 0.929 | 10.8 | –
354.15 K, x2 = 0.951 | 11.1 | –
354.15 K, x2 = 0.968 | 10.2 | –
355.15 K, x1 = 0.008 | 5.04 | –
355.15 K, x1 = 0.019 | 8.25 | –
355.15 K, x2 = 0.785 | 5.05 | –
355.15 K, x2 = 0.796 | 5.26 | –
355.15 K, x2 = 0.861 | 8.55 | –
355.15 K, x2 = 0.892 | 9.73 | –
355.15 K, x2 = 0.929 | 11 | –
355.15 K, x2 = 0.951 | 11.1 | –
356.15 K, x1 = 0.008 | 5.09 | –
356.15 K, x1 = 0.019 | 8.34 | –
356.15 K, x2 = 0.704 | 3.73 | –
356.15 K, x2 = 0.785 | 5.15 | –
356.15 K, x2 = 0.796 | 5.34 | –
356.15 K, x2 = 0.861 | 8.43 | –
356.15 K, x2 = 0.892 | 9.89 | –
356.15 K, x2 = 0.929 | 11.1 | –
356.15 K, x2 = 0.951 | 11.2 | –
356.15 K, x2 = 0.968 | 10.4 | –
357.15 K, x1 = 0.008 | 5.13 | –
357.15 K, x1 = 0.019 | 8.43 | –
357.15 K, x2 = 0.704 | 3.83 | –
357.15 K, x2 = 0.785 | 5.23 | –
357.15 K, x2 = 0.796 | 5.41 | –
357.15 K, x2 = 0.861 | 8.6 | –
357.15 K, x2 = 0.892 | 10 | –
357.15 K, x2 = 0.968 | 10.6 | –
358.15 K, x1 = 0.004 | 2.9 | –
358.15 K, x1 = 0.008 | 5.18 | –
358.15 K, x1 = 0.019 | 8.47 | –
358.15 K, x2 = 0.704 | 3.88 | –
358.15 K, x2 = 0.785 | 5.22 | –
358.15 K, x2 = 0.796 | 5.47 | –
358.15 K, x2 = 0.861 | 8.73 | –
358.15 K, x2 = 0.929 | 11.3 | –
358.15 K, x2 = 0.951 | 11.5 | –
358.15 K, x2 = 0.968 | 10.6 | –
